MIC and CC50 data for 6 compounds are collected here from ChEMBL document CHEMBL3393049, “Syntheses and Antituberculosis Activity of 1,3-Benzothiazinone Sulfoxide and Sulfone Derived from BTZ043” (ACS Med Chem Lett, 2015).

≈ marks a conversion by molar mass, not a printed value.

One data set deals with Micrococcus luteus. Put plainly: Antibacterial activity against Micrococcus luteus ATCC 10240 assessed as reduction in bacterial growth incubated for 18 to 20 hrs by broth microdilution method. The data set is classed as functional.
For another data set, the system named is Acinetobacter baumannii. Put plainly: Antibacterial activity against Acinetobacter baumannii ATCC 17961 assessed as reduction in bacterial growth incubated for 18 to 20 hrs by broth microdilution method. The data set is classed as functional. On the technique in general: In broth dilution the organism is exposed to a series of concentrations in liquid medium.

A further data set relates to Pseudomonas aeruginosa. Kind of data set: Antibacterial activity against Pseudomonas aeruginosa KW799/61 assessed as reduction in bacterial growth incubated for 18 to 20 hrs by broth microdilution method. In kind it is functional.
Data set [1] concerns Mycolicibacterium smegmatis. Put plainly: Antimycobacterial activity against Mycobacterium smegmatis str. MC2 155 assessed as reduction in bacterial growth incubated for 18 to 20 hrs by broth microdilution method. In kind it is functional.
Another data set concerns Staphylococcus aureus. Kind of data set: Antibacterial activity against Staphylococcus aureus SG511 assessed as reduction in bacterial growth incubated for 18 to 20 hrs by broth microdilution method. The data set is classed as functional.
The next data set deals with Mycolicibacterium aurum. Kind of data set: Antimycobacterial activity against Mycobacterium aurum SB66 assessed as reduction in bacterial growth incubated for 18 to 20 hrs by broth microdilution method. In kind it is functional.
The subject of another data set is Mycolicibacterium vaccae. Put plainly: Antimycobacterial activity against Mycobacterium vaccae IMET10670 assessed as reduction in bacterial growth incubated for 18 to 20 hrs by broth microdilution method. The data set is classed as functional.
The next data set concerns Mycobacterium marinum. Kind of data set: Antimycobacterial activity against Mycobacterium marinum ATCC 927 assessed as reduction in bacterial growth incubated for 5 days by MABA method. In kind it is functional. The settings on record: ATCC 927, 120 h. On the technique in general: Resazurin is reduced to fluorescent resorufin, in cell work by metabolically active cells.

A short description of data set [2]: Cytotoxicity against human MCF7 cells after 72 hrs by crystal violet biomass reduction assay. The data set is classed as cell-based.
Data set [3] relates to Mycobacterium tuberculosis. Put plainly: Antimycobacterial activity against Mycobacterium tuberculosis H37Rv ATCC 27294 assessed as reduction in bacterial growth incubated for 7 days under 7H12 medium by MABA method. The data set is classed as functional. The settings on record: H37Rv ATCC 27294, 168 h.
The subject of data set [4] is Mycobacterium tuberculosis. Put plainly: Antimycobacterial activity against Mycobacterium tuberculosis H37Rv ATCC 27294 assessed as reduction in bacterial growth incubated for 7 days under GAS medium by MABA method. The data set is classed as functional. The settings on record: H37Rv ATCC 27294, 168 h.
The next data set deals with Mycobacterium kansasii. Kind of data set: Antimycobacterial activity against Mycobacterium kansasii ATCC 12478 assessed as reduction in bacterial growth incubated for 6 days by MABA method. The note with it: ATCC 12478, 144 h. The data set is classed as functional.
Data set [5] in a line: Cytotoxicity against human PC3 cells after 72 hrs by crystal violet biomass reduction assay. The data set is classed as cell-based, PC-3.
Data set [6] in a line: Cytotoxicity against human HeLa cells after 72 hrs by crystal violet biomass reduction assay. The data set is classed as cell-based.

The MIC is the least concentration at which growth counts as inhibited. Consider `O=C(O)c1cn(C2CC2)c2cc(N3CCNCC3)c(F)cc2c1=O` [CIPROFLOXACIN], for which the MIC in the data set on Micrococcus luteus was 1.25 µM (≈ 0.414 µg/mL); with Acinetobacter baumannii, 0.156 µM (≈ 0.0517 µg/mL); with Pseudomonas aeruginosa it was 0.156 µM (≈ 0.0517 µg/mL); in [1], 0.32 µM (≈ 0.106 µg/mL); in the data set on Staphylococcus aureus (read-out: MIC) it was 0.32 µM (≈ 0.106 µg/mL); in the data set with Mycolicibacterium aurum, 0.02 µM (≈ 0.00663 µg/mL). Moreover, the MIC in the data set with Mycolicibacterium vaccae amounted to 0.32 µM (≈ 0.106 µg/mL).

By CC50 is commonly meant the concentration that lowers cell viability or growth by half. A higher CC50 goes with better tolerance by the cells. Regarding `C[C@H]1COC2(CCN(c3nc(=O)c4cc(C(F)(F)F)cc([N+](=O)[O-])c4[s+]3[O-])CC2)O1` (some centres not stated), the minimal inhibitory concentration (MIC) in the data set with Micrococcus luteus is 50 µM (≈ 22.4 µg/mL); with Acinetobacter baumannii, > 200 µM; in the data set with Pseudomonas aeruginosa, > 200 µM; in the data set with Mycobacterium marinum, 0.19 µM (≈ 0.085 µg/mL); in data set [1], < 0.013 µM; with Staphylococcus aureus (read-out: MIC), 12.5 µM (≈ 5.59 µg/mL). The MIC is 0.06 µM (≈ 0.0268 µg/mL) in [3]; < 0.02 µM in [4]; 3.13 µM (≈ 1.4 µg/mL) in the data set with Mycolicibacterium aurum; < 0.013 µM with Mycolicibacterium vaccae; 0.3 µM (≈ 0.134 µg/mL) in the data set on Mycobacterium kansasii. The figures for the CC50 at 72 h in data set [2], in data set [5] and in data set [6] were > 20 µM, 15 µM and > 20 µM, respectively.

Take `CO[C@H]1/C=C/O[C@@]2(C)Oc3c(C)c(O)c4c(O)c(c(/C=N/N5CCN(C)CC5)c(O)c4c3C2=O)NC(=O)/C(C)=C\C=C\[C@H](C)[C@H](O)[C@@H](C)[C@@H](O)[C@@H](C)[C@H](OC(C)=O)[C@@H]1C` [RIFAMPIN]: the MIC in the data set on Mycobacterium marinum was 0.23 µM (≈ 0.189 µg/mL); in data set [3], 0.05 µM (≈ 0.0411 µg/mL); in [4], 0.04 µM (≈ 0.0329 µg/mL); in the data set on Mycobacterium kansasii it was 0.1 µM (≈ 0.0823 µg/mL).

`C[C@H]1COC2(CCN(C3=NC(=O)c4cc(C(F)(F)F)cc([N+](=O)[O-])c4S3(=O)=O)CC2)O1`: the MIC with Micrococcus luteus was > 200 µM; in the data set with Acinetobacter baumannii it was > 200 µM; in the data set on Pseudomonas aeruginosa, > 200 µM; with Mycobacterium marinum, > 1 µM; in [1], > 0.5 µM; in the data set on Staphylococcus aureus, 200 µM (≈ 92.7 µg/mL). Further, the MIC in [3] is 0.48 µM (≈ 0.222 µg/mL); in data set [4], 0.51 µM (≈ 0.236 µg/mL); in the data set with Mycolicibacterium aurum, > 200 µM; in the data set with Mycolicibacterium vaccae, < 0.013 µM; in the data set with Mycobacterium kansasii, > 1 µM. The CC50 at 72 h in data set [2], in data set [5] and in data set [6] was > 20 µM throughout.

Regarding `NNC(=O)c1ccncc1` [ISONIAZID], the MIC was > 8 µM with Mycobacterium marinum, 0.1 µM (≈ 0.0137 µg/mL) in [3], 0.03 µM (≈ 0.00411 µg/mL) in data set [4] and 3.86 µM (≈ 0.529 µg/mL) in the data set with Mycobacterium kansasii.

On to `C[C@H]1COC2(CCN(c3nc(=O)c4cc(C(F)(F)F)cc([N+](=O)[O-])c4s3)CC2)O1` [BTZ-043], for which the MIC in the data set with Micrococcus luteus is > 200 µM; with Acinetobacter baumannii it was > 200 µM; in the data set with Pseudomonas aeruginosa it was > 200 µM; with Mycobacterium marinum, 0.037 µM (≈ 0.016 µg/mL); in [1] it was 0.002 µM (≈ 0.000863 µg/mL); in the data set on Staphylococcus aureus, > 200 µM. Further, the MIC was < 0.02 µM in data set [3]; < 0.02 µM in [4]; > 200 µM in the data set with Mycolicibacterium aurum; 0.002 µM (≈ 0.000863 µg/mL) in the data set with Mycolicibacterium vaccae; < 0.02 µM with Mycobacterium kansasii. Also, the CC50 at 72 h in [2], in [5] and in data set [6] was > 20 µM each time.
